{
  "source": "patent US20240327427A1",
  "about": "“NEW COMPOUNDS FOR THE TREATMENT OF ALZHEIMER'S DISEASE” (Icahn School of Medicine at Mount Sinai, priority 2020, published 2024)",
  "assay_type_in_all_cases": "cell-based, human",
  "key": {"ATP6V1A": {"tested_on": "ATP6V1A", "experiment": "ATP6V1A mRNA (qRT-PCR) and protein (western blot) levels in hiPSC-derived NGN2 neurons (iNs)", "method": "To verify this discovery, the inventors measured the transcriptional and translational levels of ATP6V1A in D21 iNs treated with the 3 HDAC inhibitors at a series of concentrations between 1 and 30 μM.\nCRISPR inhibition (CRISPRi) was used to repress endogenous ATP6V1A in hiPSC-derived NGN2 neurons. […] Next, the inventors investigated whether LQ081-166 rescued the phenotypes of ATP6V1A deficit and reduced neuronal activity.\n(§1) Quantitative reverse transcription PCR (qRT-PCR) was performed as previously described. Specifically, cell cultures were harvested with Trizol and total RNA extraction was carried out following the manufacturer's instructions. Quantitative transcript analysis was performed using a QuantStudio 7 Flex Real-Time PCR System with the Power SYBR Green RNA-to-Ct Real-Time qPCR Kit (all Thermo Fisher Scientific). Total RNA template (25 ng per reaction) was added to the PCR mix, including primers listed below. qPCR conditions were as follows; 48° C. for 30 min, 95° C. for 10 min followed by 40 cycles (95° C. for 15 s, 60° C. for 60 s). All qPCR data is collected from at least 3 independent biological replicates of one experiment. Data analyses were performed using GraphPad PRISM 6 software.\nCells were rinsed with ice-cold phosphate-buffered saline (PBS), pelleted, and lyzed in RIPA Lysis and Extraction Buffer (Thermo Fisher Scientific, #89900) containing Halt™ Protease and Phosphatase Inhibitor Cocktail (Thermo Fisher Scientific, #78440). Alternatively, MSBB BM36 brain samples were homogenized with similar methods. Samples were sonicated for 1 minute then centrifuged at 13,000× rpm for 10 min. The supernatant was collected, and total protein concentration was determined using Quick Start™ Bradford Protein Assay (Bio-Rad, 5000201) following the manufacturer's instructions.\n(§2) Images were captured and quantified using the Odyssey® Imaging Systems (LI-COR. Inc.).\n(§3) A stock solution of LQ081-166 (molecular weight: 452.63) at 3 mM is prepared in dimethyl sulfoxide (DMSO). Once prepared, aliquot the stock solution into 100 μL amounts and store at −80° C. Avoid repeated freeze-thaw cycles. The stock is diluted 1000× into neuronal medium to obtain 3 μM for assays. After 24-hour treatment, RNA was extracted from cells for quantitative PCR. In the MEA assay, LQ081-166 was added on neuronal differentiation day 14. Replace with medium containing drug or vehicle every 2-3 days until the final recording day."}, "[1]": {"tested_on": "SYN1, SCL17A7/VGLUT, PSD95, HOMER1", "experiment": "Synaptic marker mRNA and protein levels in iNs", "method": "as §1, §2"}, "[2]": {"tested_on": "hiPSC-derived NGN2 neurons", "experiment": "Multi-electrode array (MEA) neuronal activity", "conditions": "3 μM NCH-51", "method": "To evaluate electrical activity of NGN2-neurons by MEA, density-matched isogenic NGN2-neuronal populations, co-cultured with pHAs, were prepared as described above. Specifically, at day 3, pHAs were split as 17,000 cells/well in a Matrigel-coated 48W MEA plate (Axion Biosystems, M768-tMEA-48W) and maintained as above. At day 7, NGN2-neurons were detached, spun down and seeded on the pHA culture. Outer space of each well in the plate was filled up with autoclaved/deionized water to minimize the evaporation of marginal wells (“edge effect”) during long-term culture. Half volume of neuronal medium (supplemented with 2% FBS) was replaced with fresh medium including 200 nM Ara-C from day 9 until the end of MEA recording. Electrical activity of neurons was recorded daily during day 14-24. On the recording day, the plate was loaded into the Axion Maestro MEA reader (Axion Biosystems). Recording was performed via AxiS 2.4 for 10 mins. Quantitative analysis of the recording was exported as a Microsoft excel sheet. Data were analyzed using GraphPad PRISM 6 software.\nas §3"}},
  "data": [
    {"smiles": "CC(C)C(=O)SCCCCCCC(=O)Nc1nc(-c2ccccc2)cs1", "note": "[NCH-51]", "values": [
      {"measurement": "ATP6V1A mRNA level", "setting": "ATP6V1A; 3 μM, 24-hr, particularly in ATP6V1A KD iNs, P<0.05", "result": "dramatically elevates"},
      {"measurement": "transcriptional and translational levels of ATP6V1A", "setting": "ATP6V1A; D21 iNs, concentrations between 1 and 30 μM", "result": "effectively increased ATP6V1A levels"},
      {"measurement": "ATP6V1A protein yield", "setting": "ATP6V1A; iNs, 3 μM", "result": "significantly increase the protein yield"},
      {"measurement": "ATP6V1A protein level", "setting": "ATP6V1A; iNs, 3 μM, P<0.05", "result": "similarly increased"},
      {"measurement": "SCL17A7 mRNA level", "setting": "[1]; 3 μM, 24-hr, iNs, P<0.001", "result": "dramatically elevates"},
      {"measurement": "presynaptic SYN1 mRNA level", "setting": "[1]; 3 μM, 24-hr, iNs, P<0.001", "result": "dramatically elevates"},
      {"measurement": "HOMER1 levels", "setting": "[1]; ATP6V1A KD iNs or isogenic controls", "result": "increased the HOMER1 levels"},
      {"measurement": "postsynaptic PSD95", "setting": "[1]; iNs", "result": "no effect"},
      {"measurement": "SYN1 protein level", "setting": "[1]; iNs, 3 μM, P<0.01", "result": "similarly increased"},
      {"measurement": "VGLUT protein level", "setting": "[1]; iNs, 3 μM, P<0.05", "result": "similarly increased"},
      {"measurement": "restoration of neuronal activity (MEA)", "setting": "[2]; ATP6V1A KD iNs", "result": "partially restoring neuronal activity"},
      {"measurement": "neuronal activity (MEA spike events)", "setting": "[2]; iNs", "result": "potent activator of neuronal activity"}
    ]}
  ]
}
